± gives the uncertainty stated by the source.
Assay: xn = mol fraction of the nth substance listed

CCCCCCN + C1CCCCC1
303.15 K, 101 kPa
Conditions	viscosity [mPa·s]
x2 = 0.1064	0.7192 ± 0.008
x2 = 0.2992	0.7005 ± 0.0078
x2 = 0.4953	0.7021 ± 0.0078
x2 = 0.5974	0.7073 ± 0.0079
x2 = 0.6964	0.7145 ± 0.008
x2 = 0.7966	0.72 ± 0.008
x2 = 0.898	0.7541 ± 0.0084

COC(=O)OC + C1CCCCC1
viscosity [mPa·s], 101.33 kPa
Conditions	x1 = 0.101	x1 = 0.1993	x1 = 0.3026	x1 = 0.3999	x1 = 0.5	x1 = 0.5996	x1 = 0.7039	x1 = 0.8005	x1 = 0.9028	x1 = 0.9031
298.15 K	0.686 ± 0.018	0.616 ± 0.017	–	0.535 ± 0.015	0.52 ± 0.015	0.507 ± 0.014	0.499 ± 0.014	0.502 ± 0.015	0.515 ± 0.015	–
303.15 K	0.636 ± 0.017	0.573 ± 0.016	0.533 ± 0.015	0.5 ± 0.014	0.485 ± 0.014	0.475 ± 0.014	0.47 ± 0.014	0.472 ± 0.014	0.491 ± 0.014	–
308.15 K	0.59 ± 0.016	0.535 ± 0.015	0.498 ± 0.014	0.463 ± 0.013	0.455 ± 0.013	0.445 ± 0.013	0.442 ± 0.013	0.444 ± 0.013	–	0.457 ± 0.014

COCCOCCOC + C1CCCCC1
viscosity [mPa·s], 101.33 kPa
Conditions	x1 = 0.0981	x1 = 0.1885	x1 = 0.2854	x1 = 0.3996	x1 = 0.5024	x1 = 0.6005	x1 = 0.7027	x1 = 0.8014	x1 = 0.898
298.15 K	0.794 ± 0.01	0.765 ± 0.01	0.76 ± 0.01	0.769 ± 0.01	0.785 ± 0.01	0.808 ± 0.011	0.843 ± 0.011	0.882 ± 0.011	0.924 ± 0.012
303.15 K	0.734 ± 0.01	0.706 ± 0.009	0.702 ± 0.009	0.714 ± 0.009	0.73 ± 0.01	0.751 ± 0.01	0.779 ± 0.01	0.813 ± 0.011	0.851 ± 0.011
308.15 K	0.677 ± 0.009	0.654 ± 0.009	0.653 ± 0.009	0.65 ± 0.009	0.679 ± 0.009	0.697 ± 0.009	0.725 ± 0.01	0.756 ± 0.01	0.792 ± 0.01

Oc1ccccc1 + C1CCCCC1
viscosity [mPa·s], 303.15 K
Conditions	x2 = 0.0815	x2 = 0.2049	x2 = 0.2824	x2 = 0.4033	x2 = 0.501	x2 = 0.5012	x2 = 0.5905	x2 = 0.7019	x2 = 0.7969	x2 = 0.8953
101 kPa	5.517 ± 0.083	3.87 ± 0.058	3.177 ± 0.048	2.326 ± 0.035	1.864 ± 0.028	–	1.552 ± 0.024	1.255 ± 0.019	1.066 ± 0.016	0.898 ± 0.014
101.33 kPa	5.517 ± 0.15	3.87 ± 0.1	3.177 ± 0.083	2.326 ± 0.061	–	1.864 ± 0.048	1.552 ± 0.04	1.255 ± 0.033	1.066 ± 0.028	0.898 ± 0.023

ClC(Cl)C(Cl)Cl + C1CCOC1
303.15 K, 101 kPa
Conditions	viscosity [mPa·s]
x2 = 0.0912	1.403 ± 0.011
x2 = 0.1846	1.347 ± 0.01
x2 = 0.2753	1.283 ± 0.01
x2 = 0.4617	1.108 ± 0.0087
x2 = 0.5426	1.015 ± 0.0081
x2 = 0.6763	0.8466 ± 0.0068
x2 = 0.7791	0.7155 ± 0.0059
x2 = 0.8994	0.5718 ± 0.0048
x2 = 0.9513	0.515 ± 0.0044

ClC(Cl)C(Cl)Cl + C1COCCO1
303.15 K, 101.33 kPa
Conditions	viscosity [mPa·s]
x2 = 0.0869	1.441 ± 0.01
x2 = 0.1835	1.419 ± 0.01
x2 = 0.2833	1.392 ± 0.01
x2 = 0.3491	1.372 ± 0.0099
x2 = 0.461	1.331 ± 0.0096
x2 = 0.5705	1.287 ± 0.0093
x2 = 0.6587	1.245 ± 0.009
x2 = 0.7613	1.198 ± 0.0087
x2 = 0.8189	1.169 ± 0.0084
x2 = 0.908	1.128 ± 0.0081

Oc1ccccc1 + C1COCCO1
308.15 K, 101 kPa
Conditions	viscosity [mPa·s]
x2 = 0.1	4.829 ± 0.059
x2 = 0.2	4.471 ± 0.055
x2 = 0.3	3.888 ± 0.048
x2 = 0.4	3.179 ± 0.039
x2 = 0.5	2.568 ± 0.032
x2 = 0.6	2.062 ± 0.026
x2 = 0.7	1.664 ± 0.021
x2 = 0.8	1.371 ± 0.017
x2 = 0.9	1.141 ± 0.015

ClC(Cl)C(Cl)Cl + C=C(C)C(=O)OC
303.15 K, 101 kPa
Conditions	viscosity [mPa·s]
x2 = 0.0942	1.422 ± 0.011
x2 = 0.1967	1.317 ± 0.011
x2 = 0.2785	1.235 ± 0.01
x2 = 0.4978	0.9971 ± 0.0085
x2 = 0.598	0.8879 ± 0.0079
x2 = 0.7131	0.7662 ± 0.0071
x2 = 0.905	0.5902 ± 0.0062

COCCOCCOC + CC1COC(=O)O1
viscosity [mPa·s], 101.33 kPa
Conditions	298.15 K	308.15 K	318.15 K
x1 = 0.021	2.427 ± 0.028	2 ± 0.023	1.666 ± 0.02
x1 = 0.0421	2.372 ± 0.027	1.94 ± 0.022	1.641 ± 0.019
x1 = 0.0759	2.295 ± 0.026	1.87 ± 0.022	1.565 ± 0.018
x1 = 0.0976	2.245 ± 0.026	1.835 ± 0.021	1.529 ± 0.018
x1 = 0.1779	2.081 ± 0.024	1.693 ± 0.02	1.42 ± 0.017
x1 = 0.2468	1.953 ± 0.023	1.595 ± 0.019	1.332 ± 0.016
x1 = 0.3441	1.782 ± 0.021	1.458 ± 0.017	1.216 ± 0.015
x1 = 0.3815	1.719 ± 0.02	1.412 ± 0.017	1.176 ± 0.014
x1 = 0.4148	1.669 ± 0.02	1.362 ± 0.016	1.145 ± 0.014
x1 = 0.4853	1.573 ± 0.019	1.291 ± 0.016	1.083 ± 0.013
x1 = 0.5455	1.488 ± 0.018	1.226 ± 0.015	1.038 ± 0.013
x1 = 0.6708	1.324 ± 0.016	1.101 ± 0.014	0.938 ± 0.012
x1 = 0.7643	1.223 ± 0.015	1.017 ± 0.013	0.877 ± 0.011
x1 = 0.8341	1.148 ± 0.014	0.959 ± 0.012	0.829 ± 0.011
x1 = 0.8725	1.107 ± 0.014	0.928 ± 0.012	0.804 ± 0.01
x1 = 0.9275	1.06 ± 0.013	0.889 ± 0.011	0.774 ± 0.01
x1 = 0.9513	1.035 ± 0.013	0.874 ± 0.011	0.758 ± 0.01
x1 = 0.9796	1.005 ± 0.012	0.852 ± 0.011	0.739 ± 0.01

CCCC[N+](CCCC)(CCCC)CCCC.F[B-](F)(F)F + CC#N
viscosity [mPa·s], 100 kPa
Conditions	x1 = 0.004121	x1 = 0.008132	x1 = 0.01219	x1 = 0.01614	x1 = 0.02013	x1 = 0.0241	x1 = 0.02789	x1 = 0.03177	x1 = 0.03562	x1 = 0.0394
293.15 K	0.423 ± 0.009	0.446 ± 0.01	0.472 ± 0.01	0.499 ± 0.011	0.528 ± 0.011	0.559 ± 0.012	0.591 ± 0.013	0.625 ± 0.013	0.661 ± 0.014	0.698 ± 0.015
298.15 K	0.404 ± 0.009	0.426 ± 0.009	0.45 ± 0.01	0.475 ± 0.01	0.502 ± 0.011	0.532 ± 0.011	0.561 ± 0.012	0.594 ± 0.013	0.628 ± 0.013	0.663 ± 0.014
303.15 K	0.385 ± 0.008	0.406 ± 0.009	0.429 ± 0.009	0.453 ± 0.01	0.48 ± 0.01	0.507 ± 0.011	0.536 ± 0.011	0.567 ± 0.012	0.599 ± 0.013	0.633 ± 0.014
308.15 K	0.369 ± 0.008	0.389 ± 0.008	0.411 ± 0.009	0.433 ± 0.009	0.458 ± 0.01	0.484 ± 0.01	0.511 ± 0.011	0.54 ± 0.012	0.57 ± 0.012	0.602 ± 0.013
313.15 K	0.354 ± 0.008	0.373 ± 0.008	0.393 ± 0.008	0.414 ± 0.009	0.437 ± 0.009	0.462 ± 0.01	0.487 ± 0.01	0.514 ± 0.011	0.543 ± 0.012	0.572 ± 0.012
318.15 K	0.34 ± 0.007	0.358 ± 0.008	0.377 ± 0.008	0.397 ± 0.008	0.418 ± 0.009	0.441 ± 0.009	0.464 ± 0.01	0.489 ± 0.01	0.516 ± 0.011	0.544 ± 0.012
323.15 K	0.327 ± 0.007	0.344 ± 0.007	0.362 ± 0.008	0.38 ± 0.008	0.4 ± 0.009	0.422 ± 0.009	0.443 ± 0.009	0.467 ± 0.01	0.491 ± 0.01	0.517 ± 0.011
